Assay results reported in PubChem BioAssay (NCI).
“And” between values parts separate entries of the source, which are not always exact repeats. Equal entries are not always repeated.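 Where inhibition never reached the appropriate level, the endpoint shown equals the highest concentration tested. Otherwise, values were interpolated linearly from a five-concentration, 48-hour dose response in 96-well plates. Abbreviation: GI50, concentration required for 50% inhibition of growth. The concentration for full growth arrest is given as TGI.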

Legend:
Experiment in all cases: NCI tumour cell line growth inhibition, 48 h
MOLT-4 leukemia = test system: MOLT-4 leukemia
SN12C renal = test system: SN12C renal
NCI-H226 lung = test system: NCI-H226 lung
NCI-H522 lung = test system: NCI-H522 lung
RPMI-8226 leukemia = test system: RPMI-8226 leukemia
BT-549 breast = test system: BT-549 breast
CAKI-1 renal = test system: CAKI-1 renal
MDA-MB-435 = test system: MDA-MB-435
MDA-N = test system: MDA-N
OVCAR-4 ovarian = test system: OVCAR-4 ovarian

| SMILES | TGI (MOLT-4 leukemia) [µM] | TGI (SN12C renal) [µM] | TGI (NCI-H226 lung) [µM] | TGI (NCI-H522 lung) [µM] | TGI (RPMI-8226 leukemia) [µM] | TGI (BT-549 breast) [µM] | TGI (CAKI-1 renal) [µM] | TGI (MDA-MB-435) [µM] | TGI (MDA-N) [µM] | TGI (OVCAR-4 ovarian) [µM] | GI50 (RPMI-8226 leukemia) |
| --- | --- | --- | --- | --- | --- | --- | --- | --- | --- | --- | --- |
| N/C(=N\Nc1ccc(S(N)(=O)=O)cc1)c1cnccn1 | > 100 | > 100 | > 100 | > 100 | > 100 | > 100 | > 100 | > 100 | > 100 | > 100 | – |
| O=C1c2ccccc2-c2[nH]c3cn[nH]c(=O)c3c21 | > 100 | > 100 | > 100 | 50.9 | > 100 | > 100 | > 100 | > 100 | > 100 | > 100 | – |
| C/C(=N\Nc1nc2ccccc2[nH]1)c1cc2ccccc2cn1 | > 100 | 1.06 | 1.69 | 1.13 | 0.599 | 21.2 | 1.32 | 1.1 | 2.24 | 2.41 | – |
| Nc1nc(Cl)cc(NCC2(O)CCCC2)n1 | > 100 | > 100 | > 100 | > 100 | > 100 | > 100 | > 100 | > 100 | > 100 | > 100 | – |
| NS(=O)(=O)c1ccc(NNc2c3ccccc3nc3c(C(=O)Nc4ccc(S(=O)(=O)Nc5ncccn5)cc4)cccc23)cc1 | > 25 | > 25 | > 25 | > 25 | > 25 | > 25 | > 25 | > 25 | > 25 | > 25 | – |
| NC(=O)CO/N=C1/C(c2c(O)[nH]c3ccccc23)=Nc2ccccc21 | > 100 | > 100 | > 100 | > 100 | > 100 | > 100 | > 100 | > 100 | > 100 | > 100 | – |
| CCOC(=O)c1cnccc1CC1(C#N)c2ccccc2C=CN1C(=O)c1ccccc1 (stereo unspecified) | 50.8 | 97.3 | > 100 | 54.8 | 27.6 | > 100 | > 100 | > 100 | 45.8 | > 100 | – |
| CCOC(=O)C1CCCCN1CCc1c[nH]c2ccccc12 (stereo unspecified) | > 100 | > 100 | > 100 | > 100 | > 100 | > 100 | > 100 | > 100 | > 100 | > 100 | – |
| N#Cc1nc(C#N)n(C(=O)c2ccccc2)c1NC(=O)c1ccccc1 | > 100 | > 100 | > 100 | > 100 | > 100 | > 100 | > 100 | > 100 | > 100 | > 100 | – |
| O=C1CC(n2cccc2)c2c(Br)sc(Br)c21 (stereo unspecified) | 33.6 | 31.1 | 42.2 | 3.27 | 27.4 | 34.3 | 19.8 | 29.3 | 31.6 | 33.4 | – |
| Cc1cc2c(c(=O)n1C)SCC2 | > 100 | > 100 | > 100 | > 100 | > 100 | > 100 | > 100 | > 100 | > 100 | > 100 | – |
| Cc1nc2ccc(Cl)cc2c2c1CCN2c1ccccc1 | 28.5 | 17.2 | 22 | 28.1 | 31.4 | 31.2 | 28.1 | 21.3 | 10.1 | > 100 | – |
| COc1ccc(-c2cc(C(O)C3CCCCN3)c3ccccc3n2)cc1 (stereo unspecified) | 13.6 | 23.7 | 20.9 | 22.4 | 5.82 | 32.2 | 18.4 | 15.1 | 16.7 | 27.5 | – |
| Cc1ccc(/C(O)=C/c2nc3ccc([N+](=O)[O-])cc3nc2/C=C(\O)c2ccc(C)cc2)cc1 | > 100 | > 100 | > 100 | > 100 | > 100 | > 100 | > 100 | > 100 | > 100 | > 100 | – |
| CN(C)C(=S)Oc1ccc2ccc(=O)oc2c1 | > 100 | > 100 | > 100 | > 100 | > 100 | > 100 | > 100 | > 100 | > 100 | > 100 | – |
| NCCOCC(N)C(=O)O (stereo unspecified) | > 100 | > 100 | > 100 | > 100 | > 100 | > 100 | > 100 | > 100 | > 100 | > 100 | 39.1 µM and > 100 µM |
| CS(=O)(=O)NC12CCC(c3ccccc31)c1ccccc12 | > 100 | > 100 | > 100 | > 100 | > 100 | > 100 | > 100 | > 100 | > 100 | > 100 | – |
| S=C(NCc1ccccc1)N/N=C/c1ccccn1 | 16.6 | > 100 | 17.7 | 24.5 | 2.33 | > 100 | > 96.6 | > 100 | > 100 | > 100 | – |
| O=c1cc(NCc2ccncc2)[nH]c(=O)[nH]1 | > 100 | > 100 | > 100 | > 100 | > 100 | > 100 | > 100 | > 100 | > 100 | > 100 | – |
